Measured values as given in ChEMBL document CHEMBL5050844 (2019).

Key:
[1] = target: T1, E3 ubiquitin-protein ligase CBL-B (Homo sapiens, UniProt Q13191); assay: Binding affinity towards N-terminal biotinylated Avi-tagged human CBL-B (36 to 427 residues) measured by surface plasmon resonance assay
[2] = Induction of anti-CD3/CD28 antibodies-stimulated human T cell activation at 4 uM assessed fold increase in IL-2 secretion measured by ELISA assay; format: functional, T cell line
[3] = target: T1, E3 ubiquitin-protein ligase CBL-B; assay: Inhibition of N-terminal Avi-tagged human CBL-B (36 to 427 residues) incubated with 60 nM Src kinase for 1.5 hrs followed by incubation with fluorescently labeled UbcH5B-Ub for 1 hr and measured by TR-FRET assay; format: single protein
[4] = Induction of anti-CD3/CD28 antibodies-stimulated human T cell activation at 0.3 uM assessed fold increase in IL-2 secretion measured by ELISA assay; format: functional, T cell line
[5] = Induction of anti-CD3 antibodies-stimulated human T cell activation at 8 uM assessed fold increase in CD25 expression measured by ELISA assay; format: functional, T cell line; further: reference of the scale not given here
[6] = Induction of anti-CD3/CD28 antibodies-stimulated human T cell activation at 1 uM assessed fold increase in CD25 expression measured by ELISA assay; format: functional, T cell line
[7] = Induction of anti-CD3 antibodies-stimulated human T cell activation at 1 uM assessed fold increase in CD25 expression measured by ELISA assay; format: functional, T cell line; further: reference of the scale not given here
[8] = Induction of anti-CD3/CD28 antibodies-stimulated human T cell activation at 1 uM assessed fold increase in IL-2 secretion measured by ELISA assay; format: functional, T cell line
[9] = Induction of anti-CD3/CD28 antibodies-stimulated human T cell activation at 0.3 uM assessed fold increase in CD25 expression measured by ELISA assay; format: functional, T cell line
[10] = Induction of anti-CD3 antibodies-stimulated human T cell activation at 1 uM assessed fold increase in IL-2 secretion measured by ELISA assay; format: functional, T cell line; further: reference of the scale not given here
[11] = Induction of anti-CD3/CD28 antibodies-stimulated human T cell activation at 4 uM assessed fold increase in CD25 expression measured by ELISA assay; format: functional, T cell line
[12] = Induction of anti-CD3 antibodies-stimulated human T cell activation at 8 uM assessed fold increase in IL-2 secretion measured by ELISA assay; format: functional, T cell line; further: reference of the scale not given here

T1 sequence (Q13191 whole entry, the tested form may be a part): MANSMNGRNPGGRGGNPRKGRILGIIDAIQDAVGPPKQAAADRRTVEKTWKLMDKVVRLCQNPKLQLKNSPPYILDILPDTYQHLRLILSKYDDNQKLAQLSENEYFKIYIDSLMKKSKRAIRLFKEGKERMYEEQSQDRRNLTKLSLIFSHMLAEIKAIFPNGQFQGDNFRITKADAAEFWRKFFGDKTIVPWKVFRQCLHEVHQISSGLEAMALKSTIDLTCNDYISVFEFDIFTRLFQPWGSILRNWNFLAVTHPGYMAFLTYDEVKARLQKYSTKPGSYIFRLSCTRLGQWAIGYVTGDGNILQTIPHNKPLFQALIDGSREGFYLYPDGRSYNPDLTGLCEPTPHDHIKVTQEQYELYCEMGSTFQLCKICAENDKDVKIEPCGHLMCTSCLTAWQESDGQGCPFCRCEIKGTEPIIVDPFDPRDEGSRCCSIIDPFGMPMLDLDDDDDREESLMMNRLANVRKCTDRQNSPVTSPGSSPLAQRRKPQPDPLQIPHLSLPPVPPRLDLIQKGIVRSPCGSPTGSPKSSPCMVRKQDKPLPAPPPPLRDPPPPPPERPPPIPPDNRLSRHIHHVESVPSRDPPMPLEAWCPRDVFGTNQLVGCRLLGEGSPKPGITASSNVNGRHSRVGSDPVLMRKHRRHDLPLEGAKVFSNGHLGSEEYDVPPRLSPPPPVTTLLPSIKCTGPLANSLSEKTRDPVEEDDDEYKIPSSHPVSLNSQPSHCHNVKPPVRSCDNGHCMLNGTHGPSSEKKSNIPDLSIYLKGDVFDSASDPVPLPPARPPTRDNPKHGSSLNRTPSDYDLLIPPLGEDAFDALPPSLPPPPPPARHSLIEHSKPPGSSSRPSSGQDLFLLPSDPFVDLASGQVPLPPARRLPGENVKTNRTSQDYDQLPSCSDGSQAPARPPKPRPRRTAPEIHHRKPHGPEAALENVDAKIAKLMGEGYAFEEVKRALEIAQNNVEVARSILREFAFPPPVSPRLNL

| Compound | Kd [1] [nM] | fold change (FC) [2] | IC50 [3] [nM] | fold change (FC) [4] | fold change (FC) [5] | fold change (FC) [6] | fold change (FC) [7] | fold change (FC) [8] | fold change (FC) [9] | fold change (FC) [10] | fold change (FC) [11] | fold change (FC) [12] |
| --- | --- | --- | --- | --- | --- | --- | --- | --- | --- | --- | --- | --- |
| Cc1c[nH]nc1-c1cc2c(c(C(F)(F)F)c1)CN(c1cccc([C@H](C)Cc3nncn3C)c1)C2=O | < 100 | >=7.5 | < 100 | 1.01 | 0.801 | 1.51 | 0.601 | 5 | 1.31 | >=0.201 | >=1.76 | >=0.201 |
| Cn1cnnc1CC(C)(C)c1cccc(N2Cc3c(cc(C4CC4)cc3C(F)(F)F)C2=O)c1 | < 100 | 5 | < 100 | 1.01 | >=1.001 | 1.01 | 0.801 | 2.51 | 1.01 | 0.101 | 1.31 | >=0.201 |
| C[C@H](Cc1nncn1C)c1cccc(N2Cc3c(cc(CN4CC[C@@H](F)C4)cc3C(F)(F)F)C2=O)c1 | < 100 | >=7.5 | < 100 | 5 | >=1.001 | 1.01 | >=1.001 | >=7.5 | 1.01 | >=0.201 | 1.31 | >=0.201 |
| CC(C)Nc1cc([C@H](C)Cc2nncn2C)cc(N2Cc3c(cccc3C(F)(F)F)C2=O)n1 | < 100 | >=7.5 | < 100 | 1.01 | >=1.001 | 1.01 | 0.801 | 2.51 | 1.01 | 0.101 | 1.31 | >=0.201 |
| C[C@H](Cc1nncn1C)c1cccc(N2Cc3c(cc([C@@H](C)N4CC[C@H](F)C4)cc3C(F)(F)F)C2=O)c1 | < 100 | >=7.5 | < 100 | 5 | >=1.001 | 1.01 | >=1.001 | >=7.5 | 1.01 | 0.151 | 1.31 | >=0.201 |
| C[C@H](Cc1nncn1C)c1cccc(N2Cc3c(cc(CN4CC(F)(F)C4)cc3C(F)(F)F)C2=O)c1 | < 100 | >=7.5 | < 100 | 5 | >=1.001 | 1.31 | >=1.001 | >=7.5 | 1.01 | 0.151 | 1.31 | >=0.201 |
| CC(c1cc2c(c(C(F)(F)F)c1)CN(c1cccc([C@H](C)Cc3nncn3C)c1)C2=O)N1CC[C@H](O)C1 (stereo partly specified) | < 100 | >=7.5 | < 100 | 2.51 | >=1.001 | 1.31 | >=1.001 | >=7.5 | 1.31 | 0.151 | 1.51 | >=0.201 |
| Cc1n[nH]c(C)c1-c1cc2c(c(C(F)(F)F)c1)CN(c1cccc([C@H](C)Cc3nncn3C)c1)C2=O | < 100 | >=7.5 | < 100 | 2.51 | >=1.001 | 1.51 | >=1.001 | >=7.5 | 1.31 | >=0.201 | >=1.76 | >=0.201 |
| C[C@H](Cc1nncn1C)c1cccc(N2Cc3c(cc(C(=O)N4C[C@@H](O)C[C@H]4C)cc3C(F)(F)F)C2=O)c1.O=C(O)C(F)(F)F | < 100 | >=7.5 | < 100 | 2.51 | >=1.001 | 1.51 | 0.801 | 5 | 1.31 | >=0.201 | >=1.76 | >=0.201 |
| C[C@H](Cc1nncn1C)c1cccc(NC(=O)c2ccc(CO)c(C3CC3)n2)c1 | < 100 | >=7.5 | < 100 | >=7.5 | >=1.001 | 1.51 | >=1.001 | >=7.5 | 1.31 | >=0.201 | 1.51 | >=0.201 |
| Cn1cnnc1C(F)(F)[C@](C)(F)c1cccc(N2Cc3c(cc(CN4CC[C@@H](S(C)(=O)=O)C4)cc3C(F)(F)F)C2=O)c1 | < 100 | >=7.5 | < 100 | 2.51 | >=1.001 | 1.01 | 0.801 | 5 | 1.01 | 0.151 | 1.31 | >=0.201 |
| C[C@H](Cc1nncn1C)c1cccc(NC(=O)c2cc(C3CC3)nc(C3CC3)n2)c1 | < 100 | >=7.5 | < 100 | 2.51 | >=1.001 | 1.51 | >=1.001 | 5 | 1.01 | >=0.201 | 1.51 | >=0.201 |
| C[C@H](CC1=NN=CC1C(F)(F)F)c1cccc(N2Cc3c(cc(C(=O)N4CC[C@H](O)C4)cc3C(F)(F)F)C2=O)c1 (stereo partly specified) | < 100 | 2.51 | < 100 | 1.01 | >=1.001 | 1.01 | 0.801 | 1.01 | 1.01 | 0.051 | 1.01 | 0.151 |
| Cc1conc1C[C@@H](C)c1cccc(N2Cc3c(cc(C(=O)N4CC[C@H](O)C4)cc3C(F)(F)F)C2=O)c1 | < 100 | >=7.5 | < 100 | 2.51 | >=1.001 | 1.01 | >=1.001 | 5 | 1.01 | 0.101 | 1.01 | >=0.201 |
| C[C@H](Cc1nncn1C)c1cccc(N2Cc3c(cc(N(C)[C@H]4CCNC4)cc3C(F)(F)F)C2=O)c1 | < 100 | >=7.5 | < 100 | 2.51 | >=1.001 | 1.31 | 0.801 | 2.51 | 1.31 | 0.151 | 1.51 | >=0.201 |
| Cn1cnnc1CC1(c2cccc(N3Cc4c(cc(CN5CCC(F)(F)C5)cc4C(F)(F)F)C3=O)c2)COC1 | < 100 | >=7.5 | < 100 | 2.51 | >=1.001 | 1.01 | >=1.001 | >=7.5 | 1.01 | >=0.201 | 1.01 | >=0.201 |
| C[C@H](Cc1nncn1C)c1cccc(N2Cc3c(cc(CN4CCC(F)(F)C4)cc3C(F)(F)F)C2=O)c1 | < 100 | >=7.5 | < 100 | 2.51 | >=1.001 | 1.01 | >=1.001 | 5 | 1.01 | 0.151 | 1.31 | >=0.201 |
| C[C@H](Cc1nncn1C)c1cccc(N2Cc3c(cc(C(=O)N4CC[C@H](O)C4)cc3C(F)(F)F)C2=O)c1 | < 100 | >=7.5 | < 100 | 1.01 | >=1.001 | 1.01 | 0.801 | 2.51 | 1.01 | 0.151 | 1.31 | >=0.201 |
